Test results: PubChem BioAssay AID2060887 (Molecular Pharmacology Branch, DTP, NCI, 2025)
pIC50: −log10 of the molar value.

Test system: 782815-120-R-J1-PDC complex spheroid viability
Experiment: Anticancer human tumor 782815-120-R-J1-PDC patient-derived colon adenocarcinoma cell line growth inhibition [RAS]
Conditions: for pIC50: curve of first compound; for viability, T/C: stronger effect = lower value
Outline: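 Multi-cell-type spheroids: tumor cells plus HUVEC endothelial cells and mesenchymal stem cells. RAS-pathway inhibitors were combined with targeted agents, each dosed in half-log steps down from clinical Cmax, or from 10 microM when Cmax was unknown.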

[1] = second compound 0.0316 µM, first compound 0.0316 µM
[2] = second compound 0.0316 µM, first compound 0.1 µM
[3] = second compound 0.0316 µM, first compound 0.316 µM
[4] = second compound 0.0316 µM, first compound 1 µM
[5] = second compound 0.0316 µM, first compound 3.16 µM
[6] = second compound 0.0316 µM, first compound 10 µM
[7] = second compound 0.1 µM, first compound 0.0316 µM
[8] = second compound 0.1 µM, first compound 0.1 µM
[9] = second compound 0.1 µM, first compound 0.316 µM
[10] = second compound 0.1 µM, first compound 1 µM
[11] = second compound 0.1 µM, first compound 3.16 µM
[12] = second compound 0.1 µM, first compound 10 µM
[13] = second compound 0.316 µM, first compound 0.0316 µM
[14] = second compound 0.316 µM, first compound 0.1 µM
[15] = second compound 0.316 µM, first compound 0.316 µM
[16] = second compound 0.316 µM, first compound 1 µM
[17] = second compound 0.316 µM, first compound 3.16 µM
[18] = second compound 0.316 µM, first compound 10 µM
[19] = second compound 1 µM, first compound 0.0316 µM
[20] = second compound 1 µM, first compound 0.1 µM
[21] = second compound 1 µM, first compound 0.316 µM
[22] = second compound 1 µM, first compound 1 µM
[23] = second compound 1 µM, first compound 3.16 µM
[24] = second compound 1 µM, first compound 10 µM
[25] = second compound 3.16 µM, first compound 0.0316 µM
[26] = second compound 3.16 µM, first compound 0.1 µM
[27] = second compound 3.16 µM, first compound 0.316 µM
[28] = second compound 3.16 µM, first compound 1 µM
[29] = second compound 3.16 µM, first compound 3.16 µM
[30] = second compound 3.16 µM, first compound 10 µM
[31] = second compound 10 µM, first compound 0.0316 µM
[32] = second compound 10 µM, first compound 0.1 µM
[33] = second compound 10 µM, first compound 0.316 µM
[34] = second compound 10 µM, first compound 1 µM
[35] = second compound 10 µM, first compound 3.16 µM
[36] = second compound 10 µM, first compound 10 µM
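Further: spheroids exposed to compounds for 7 days before reading.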
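Wherever viability, T/C is given: 100% = DMSO vehicle control viability.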

CCC(CC)c1cc(NC2CCC(N)C2)n2nccc2n1 (stereo not drawn) + C#Cc1c(F)ccc2cc(O)cc(-c3ncc4c(N5CC6CCC(C5)N6)nc(OCC56CCCN5CC(F)C6)nc4c3F)c12
pIC50 (second compound 0.0316 µM): 5.60 | pIC50 (second compound 0.1 µM): 5.58 | pIC50 (second compound 0.316 µM): 5.55 | pIC50 (second compound 1 µM): 5.62 | pIC50 (second compound 3.16 µM): 5.59 | pIC50 (second compound 10 µM): 5.63 | viability, T/C [1]: 93.3% | viability, T/C [2]: 90.7% | viability, T/C [3]: 99.4% | viability, T/C [4]: 100% | viability, T/C [5]: 38.2% | viability, T/C [6]: 1.67% | viability, T/C [7]: 99.2% | viability, T/C [8]: 103% | viability, T/C [9]: 96.9% | viability, T/C [10]: 104% | viability, T/C [11]: 40.3% | viability, T/C [12]: 1.65% | viability, T/C [13]: 105% | viability, T/C [14]: 109% | viability, T/C [15]: 103% | viability, T/C [16]: 111% | viability, T/C [17]: 43.7% | viability, T/C [18]: 2.09% | viability, T/C [19]: 96.3% | viability, T/C [20]: 90.1% | viability, T/C [21]: 101% | viability, T/C [22]: 105% | viability, T/C [23]: 34.4% | viability, T/C [24]: 1.52% | viability, T/C [25]: 104% | viability, T/C [26]: 95% | viability, T/C [27]: 91.2% | viability, T/C [28]: 99% | viability, T/C [29]: 39.3% | viability, T/C [30]: 1.84% | viability, T/C [31]: 106% | viability, T/C [32]: 90.6% | viability, T/C [33]: 92.2% | viability, T/C [34]: 103% | viability, T/C [35]: 33.7% | viability, T/C [36]: 1.27%

Cc1nc(N2CCC3(CC2)COC(C)C3N)c(CO)nc1Sc1ccnc(N)c1Cl (stereo not drawn) + C#Cc1c(F)ccc2cc(O)cc(-c3ncc4c(N5CC6CCC(C5)N6)nc(OCC56CCCN5CC(F)C6)nc4c3F)c12
pIC50 (second compound 0.0316 µM): < 5.00 | pIC50 (second compound 0.1 µM): < 5.00 | pIC50 (second compound 0.316 µM): < 5.00 | pIC50 (second compound 1 µM): < 5.00 | pIC50 (second compound 3.16 µM): < 5.00 | pIC50 (second compound 10 µM): < 5.00 | viability, T/C [1]: 94.9% | viability, T/C [2]: 99.1% | viability, T/C [3]: 97.7% | viability, T/C [4]: 90.2% | viability, T/C [5]: 91.5% | viability, T/C [6]: 95.2% | viability, T/C [7]: 96% | viability, T/C [8]: 109% | viability, T/C [9]: 106% | viability, T/C [10]: 99.7% | viability, T/C [11]: 105% | viability, T/C [12]: 98.7% | viability, T/C [13]: 104% | viability, T/C [14]: 102% | viability, T/C [15]: 91.9% | viability, T/C [16]: 94.7% | viability, T/C [17]: 92.1% | viability, T/C [18]: 99.7% | viability, T/C [19]: 94.3% | viability, T/C [20]: 90.1% | viability, T/C [21]: 104% | viability, T/C [22]: 88.8% | viability, T/C [23]: 102% | viability, T/C [24]: 98.1% | viability, T/C [25]: 99.3% | viability, T/C [26]: 96.8% | viability, T/C [27]: 86% | viability, T/C [28]: 93.6% | viability, T/C [29]: 97% | viability, T/C [30]: 92.9% | viability, T/C [31]: 101% | viability, T/C [32]: 96.7% | viability, T/C [33]: 93.4% | viability, T/C [34]: 92.6% | viability, T/C [35]: 105% | viability, T/C [36]: 92.3%

NC1c2ccccc2OC12CCN(c1cnc3c(N4CCCc5ncccc54)n[nH]c3n1)CC2 (stereo not drawn) + C#Cc1c(F)ccc2cc(O)cc(-c3ncc4c(N5CC6CCC(C5)N6)nc(OCC56CCCN5CC(F)C6)nc4c3F)c12
pIC50 (second compound 0.0316 µM): < 5.00 | pIC50 (second compound 0.1 µM): < 5.00 | pIC50 (second compound 0.316 µM): < 5.00 | pIC50 (second compound 1 µM): < 5.00 | pIC50 (second compound 3.16 µM): < 5.00 | pIC50 (second compound 10 µM): < 5.00 | viability, T/C [1]: 110% | viability, T/C [2]: 104% | viability, T/C [3]: 111% | viability, T/C [4]: 95.3% | viability, T/C [5]: 99.8% | viability, T/C [6]: 84% | viability, T/C [7]: 103% | viability, T/C [8]: 96% | viability, T/C [9]: 110% | viability, T/C [10]: 106% | viability, T/C [11]: 94.4% | viability, T/C [12]: 76.6% | viability, T/C [13]: 99.6% | viability, T/C [14]: 105% | viability, T/C [15]: 103% | viability, T/C [16]: 106% | viability, T/C [17]: 96.7% | viability, T/C [18]: 90.4% | viability, T/C [19]: 109% | viability, T/C [20]: 102% | viability, T/C [21]: 110% | viability, T/C [22]: 106% | viability, T/C [23]: 105% | viability, T/C [24]: 83.7% | viability, T/C [25]: 102% | viability, T/C [26]: 97.1% | viability, T/C [27]: 102% | viability, T/C [28]: 98.9% | viability, T/C [29]: 99% | viability, T/C [30]: 96.7% | viability, T/C [31]: 101% | viability, T/C [32]: 101% | viability, T/C [33]: 115% | viability, T/C [34]: 100% | viability, T/C [35]: 94.7% | viability, T/C [36]: 80.4%

Nc1ccn(C2OC(CO)C(O)C2(F)F)c(=O)n1 (stereo not drawn) + C#Cc1c(F)ccc2cc(O)cc(-c3ncc4c(N5CC6CCC(C5)N6)nc(OCC56CCCN5CC(F)C6)nc4c3F)c12
pIC50 (second compound 0.0316 µM): 7.03 | pIC50 (second compound 0.1 µM): 7.13 | pIC50 (second compound 0.316 µM): 7.07 | pIC50 (second compound 1 µM): 7.15 | pIC50 (second compound 3.16 µM): 7.07 | pIC50 (second compound 10 µM): 7.20 | viability, T/C (second compound 0.0316 µM, first compound 0.00316 µM): 103% | viability, T/C (second compound 0.0316 µM, first compound 0.01 µM): 92.8% | viability, T/C [1]: 64.8% | viability, T/C [2]: 54% | viability, T/C [3]: 31.3% | viability, T/C [4]: 28.6% | viability, T/C (second compound 0.1 µM, first compound 0.00316 µM): 101% | viability, T/C (second compound 0.1 µM, first compound 0.01 µM): 91.1% | viability, T/C [7]: 62.3% | viability, T/C [8]: 47.8% | viability, T/C [9]: 29.6% | viability, T/C [10]: 26.3% | viability, T/C (second compound 0.316 µM, first compound 0.00316 µM): 97.8% | viability, T/C (second compound 0.316 µM, first compound 0.01 µM): 92.2% | viability, T/C [13]: 58.7% | viability, T/C [14]: 50.2% | viability, T/C [15]: 37.1% | viability, T/C [16]: 25.3% | viability, T/C (second compound 1 µM, first compound 0.00316 µM): 97.9% | viability, T/C (second compound 1 µM, first compound 0.01 µM): 81.9% | viability, T/C [19]: 60.6% | viability, T/C [20]: 43.5% | viability, T/C [21]: 38.1% | viability, T/C [22]: 26.7% | viability, T/C (second compound 3.16 µM, first compound 0.00316 µM): 96.8% | viability, T/C (second compound 3.16 µM, first compound 0.01 µM): 89.7% | viability, T/C [25]: 63.1% | viability, T/C [26]: 49% | viability, T/C [27]: 36.2% | viability, T/C [28]: 28.1% | viability, T/C (second compound 10 µM, first compound 0.00316 µM): 101% | viability, T/C (second compound 10 µM, first compound 0.01 µM): 95.2% | viability, T/C [31]: 61.9% | viability, T/C [32]: 42% | viability, T/C [33]: 35.6% | viability, T/C [34]: 27.1%
